Like-named read-outs stand apart in the source and are kept apart here.
How the values were obtained:
[1] = amide bond
[2] = biological target: T1, endothelin receptor A (ETA) (Sus scrofa, UniProt Q29010); assay: Assay of Affinity for Receptor (1): Binding Activity on ETA Receptor; design: key to Binding Activity on ET Receptor (R. act.) ETA: relative binding activity; reference cyclic pentapeptide = 1.0; conditions: specific activity, binding activity of cyclo[-D-Glu-Ala-D-aIle-Leu-D-Trp-] taken as 1.0; porcine heart membrane fraction, 125I-labeled endothelin-1, 25° C., 1 hour
T1 construct: A membrane fraction prepared from the porcine heart; from tissue; host or cells: porcine heart membrane fraction
T1 sequence (Q29010 21-427): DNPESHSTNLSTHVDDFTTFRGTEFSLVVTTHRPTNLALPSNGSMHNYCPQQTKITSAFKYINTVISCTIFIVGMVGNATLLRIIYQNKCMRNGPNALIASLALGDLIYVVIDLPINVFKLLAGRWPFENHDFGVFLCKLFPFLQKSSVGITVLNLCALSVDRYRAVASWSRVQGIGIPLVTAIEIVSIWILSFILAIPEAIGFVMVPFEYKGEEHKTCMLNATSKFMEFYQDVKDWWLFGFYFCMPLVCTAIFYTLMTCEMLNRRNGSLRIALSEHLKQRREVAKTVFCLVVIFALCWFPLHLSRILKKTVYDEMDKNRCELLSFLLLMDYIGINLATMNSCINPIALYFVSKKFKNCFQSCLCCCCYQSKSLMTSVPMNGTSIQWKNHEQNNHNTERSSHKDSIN
Experimental: Assay of Affinity for Receptor (1) . . . Binding Activity on ETA Receptor
A membrane fraction prepared from the porcine heart was diluted to 0.15 mg/ml by using a buffer solution for assay, and 100 μl of the resulting suspension of the membrane fraction was poured into each assay tube to use for assay. To this suspension of the membrane fraction was added 2 μl of 5 nM ^125 I-labeled endothelin-1 solution. Further, 3 μl of a test peptide solution was added thereto, followed by incubation at a temperature of 25° C. for 1 hour. Then, the resulting suspension was diluted with 900 μl of the buffer solution for assay cooled with ice, and thereafter separated into a supernatant and a precipitate by centrifugation at 12,000×g for 10 minutes. Cell membranes and an endothelin receptor A (ETA) embedded therein were contained in the precipitate, and radioactive iodine-labeled endothelin combined with the receptor was also recovered in the precipitate. Accordingly, the amount of radioactive iodine-labeled endothelin combined with the endothelin receptor A (ETA) was determined by measuring the amount of radioactive iodine contained in the precipitate with a gamma-ray counter. The cyclic pentapeptide described in Japanese Patent Application No. 2-413828/1990, cyclo[-D-Glu-Ala-D-aIle-Leu-D-Trp-], was used as a control compound. The numerical value of ETA shown in Table 1 is the value of specific activity, taking the binding activity of this cyclic pentapeptide on the receptor A as 1.0. The binding activity (IC50) of this cyclic pentapeptide on the ETA receptor is 2×10^-6 M.

[3] = system: ETB receptor (guinea pig kidney crude receptor membrane fraction); assay: ETB Radio Receptor Assay *2; assay type: binding; conditions: relative activity (Example 8 given as 100), 125I-endothelin-1, 37° C., 90 minutes
Experimental: ETB Radio Receptor Assay *2
In the endothelin radio receptor assay, guinea pigs' kidneys were used. Guinea pigs (Std Hartrey, male 250 g, Japan SLC Ltd.) were made to have a cerebral concussion and sacrificed by bleeding from carotid arteries to pick up the kidneys and removed fat therefrom to prepare the kidneys. The obtained kidneys were sliced and homogenized by politron homogenizer in 20 ml of 50 mM Tris-HCl buffer [pH 7.4; 20 mM NaHCO3, 0.1 mM PMSF (Phenylmethylsulfonyl Fluoride), 1 mM EDTA (Ethylenediaminetetraacetic acid)] per one kidney. The homogenized kidney was applied to a centrifugation at 1,000×g for 15 minutes and the supernatant was further applied to a centrifugation for 20 minutes at 30,000×g. The resulting precipitate was twice washed with 50 mM Tris-HCl buffer (pH 7.4) containing 0.1 mM PMSF, 1 mM EDTA. The resultant was stored at -80 ° C. as a crude receptor membrane fraction and was used as the suspension in the following buffer when necessary.
740 Bq of ^125 I-endothelin-1 (81.4 TBq/mmol, Du Pont, USA) as a radio ligand, the crude membrane fraction (2.1 μg protein) and samples were added to the following buffer. The reaction was performed at 37° C., for 90 minutes in 0.2 ml of the buffer [50 mM Tris-HCl buffer (pH 7.4) containing 0.1 mM PMSF, 1 mM EDTA, 0.2% bovine serum albumin].
The reaction was stopped by fast filtration on a glass filter (GF/B, Wattman, USA) by Cell Harvestor (290 PHD, Cambridge-Technology, Great Britain), and the filter was three times washed with 50 mM Tris-HCl buffer (pH 7.4). Radio activity remained on the filter was assayed by a gamma counter.

Molecule CC(C)C[C@@H]1NC(=O)[C@@H](c2cccs2)NC(=O)[C@H](CC(=O)OCc2ccccc2)NC(=O)[C@H](CC(=O)NCCc2c[nH]c3ccccc23)NC(=O)[C@@H](CC(=O)OCc2ccccc2)NC(=O)[C@@H](Cc2c[nH]c3ccccc23)NC1=O has a ring closure, yield of all isomers ([1]; from CC(C)C[C@H](NC(=O)[C@H](NC(=O)[C@H](CC(=O)OCc1ccccc1)NC(=O)[C@H](CC(=O)NCCc1c[nH]c2ccccc12)NC(=O)[C@@H](CC(=O)OCc1ccccc1)NC(=O)[C@@H](Cc1c[nH]c2ccccc12)NC(=O)OC(C)(C)C)c1cccs1)C(=O)O, HONB/DCC (active ester), then diisopropylethylamine, DMF, 4.75 mM, 3 steps) of 90.4%.

With CC(C)C[C@@H]1NC(=O)[C@@H](CC(C)C)NC(=O)[C@H](CC(=O)O)NC(=O)[C@H](Cc2c[nH]c3ccccc23)NC(=O)[C@@H](CC(=O)O)NC(=O)[C@@H](Cc2cn(C)c3ccccc23)NC1=O [Example 95, Cyclo[--D--Asp--Trp--Asp--D--Leu--Leu--D--Trp(Me)--]] the “Binding Activity on ET Receptor (R. act.) ETA” value [2] was 110 and the “Binding Activity on ET Receptor (R. act.) ET8 *2” value [3] was 330.

With CC(C)C[C@@H]1NC(=O)[C@@H](CC(C)C)NC(=O)[C@H](CC(=O)OCc2ccccc2)NC(=O)[C@@H]2C[C@@H](OCc3ccccc3)CN2C(=O)[C@@H](CC(=O)OCc2ccccc2)NC(=O)[C@@H](Cc2c[nH]c3ccccc23)NC1=O [cyclo[-D-Asp(OBzl)-Hyp(Bzl)-Asp(OBzl)-D-Leu-Leu-D-Trp-]] the ring closure, yield of all isomers ([1]; from CC(C)C[C@H](NC(=O)[C@@H](CC(C)C)NC(=O)[C@H](CC(=O)OCc1ccccc1)NC(=O)[C@@H]1C[C@@H](OCc2ccccc2)CN1C(=O)[C@@H](CC(=O)OCc1ccccc1)NC(=O)[C@@H](Cc1c[nH]c2ccccc12)NC(=O)OC(C)(C)C)C(=O)O, HONB/DCC (active ester), then TEA, DMF, 9.5 mM, 16.0 h, 3 steps) was 82.6%.

For CC(C)C[C@@H]1NC(=O)[C@@H](CC(C)C)NC(=O)[C@H](CC(=O)O)NC(=O)[C@H](C)NC(=O)[C@@H](CC(=O)O)NC(=O)[C@@H](Cc2c[nH]c3ccccc23)NC1=O [cyclo[-D-Asp-Ala-Asp-D-Leu-Leu-D-Trp-]], the ring closure, yield of all isomers ([1]; from CC(C)C[C@H](NC(=O)[C@@H](CC(C)C)NC(=O)[C@H](CC(=O)OCc1ccccc1)NC(=O)[C@H](C)NC(=O)[C@@H](CC(=O)OCc1ccccc1)NC(=O)[C@@H](Cc1c[nH]c2ccccc12)NC(=O)OC(C)(C)C)C(=O)O, HONB/DCC (active ester), TEA, DMF, 5.0 mM, 4 steps) was 18.2%.

Work on CC(C)C[C@@H]1NC(=O)[C@@H](CC(C)C)NC(=O)[C@@H](CC(=O)O)NC(=O)[C@H](C)NC(=O)[C@@H](CC(=O)O)NC(=O)[C@@H](Cc2c[nH]c3ccccc23)NC1=O [cyclo[-D-Asp-Ala-D-Asp-D-Leu-Leu-D-Trp-]] yielded a ring closure, yield of all isomers ([1]; from CC(C)C[C@H](NC(=O)[C@@H](CC(C)C)NC(=O)[C@@H](CC(=O)OCc1ccccc1)NC(=O)[C@H](C)NC(=O)[C@@H](CC(=O)OCc1ccccc1)NC(=O)[C@@H](Cc1c[nH]c2ccccc12)NC(=O)OC(C)(C)C)C(=O)O, HONB/DCC (active ester), TEA, DMF, 5.0 mM, 4 steps) of 15.3%.

CC(C)C[C@@H]1NC(=O)[C@@H](CC(C)C)NC(=O)[C@@H](CCC(=O)O)NC(=O)[C@H](C)NC(=O)[C@@H](CC(=O)O)NC(=O)[C@@H](Cc2c[nH]c3ccccc23)NC1=O [cyclo[-D-Asp-Ala-D-Glu-D-Leu-Leu-D-Trp-]] gave a ring closure, yield of all isomers ([1]; from CC(C)C[C@H](NC(=O)[C@@H](CC(C)C)NC(=O)[C@@H](CCC(=O)OCc1ccccc1)NC(=O)[C@H](C)NC(=O)[C@@H](CC(=O)OCc1ccccc1)NC(=O)[C@@H](Cc1c[nH]c2ccccc12)NC(=O)OC(C)(C)C)C(=O)O, HONB/DCC (active ester), TEA, DMF, 4.97 mM, 16.0 h, 4 steps) of 10.8%.

In the case of CC(C)C[C@@H]1NC(=O)[C@@H](CC(C)C)NC(=O)[C@H](CCC(=O)O)NC(=O)[C@H](C)NC(=O)[C@@H](CC(=O)O)NC(=O)[C@@H](Cc2c[nH]c3ccccc23)NC1=O [cyclo[-D-Asp-Ala-Glu-D-Leu-Leu-D-Trp-]], the ring closure, yield of all isomers ([1]; from CC(C)C[C@H](NC(=O)[C@@H](CC(C)C)NC(=O)[C@H](CCC(=O)OCc1ccccc1)NC(=O)[C@H](C)NC(=O)[C@@H](CC(=O)OCc1ccccc1)NC(=O)[C@@H](Cc1c[nH]c2ccccc12)NC(=O)OC(C)(C)C)C(=O)O, HONB/DCC (active ester), TEA, DMF, 4.97 mM, 16.0 h, 4 steps) is reported as 24.1%.

In the case of CC(C)C[C@@H]1NC(=O)[C@@H](CC(C)C)NC(=O)[C@H](CC(=O)O)NC(=O)[C@H](CC(=O)NCCc2c[nH]c3ccccc23)NC(=O)[C@@H](CC(=O)O)NC(=O)[C@@H](Cc2c[nH]c3ccccc23)NC1=O [cyclo[-D-Asp-Asn(CH2 CH2 -Ind)-Asp-D-Leu-Leu-D-Trp-]], the ring closure, yield of all isomers ([1]; from CC(C)C[C@H](NC(=O)[C@@H](CC(C)C)NC(=O)[C@H](CC(=O)OCc1ccccc1)NC(=O)[C@H](CC(=O)NCCc1c[nH]c2ccccc12)NC(=O)[C@@H](CC(=O)OCc1ccccc1)NC(=O)[C@@H](Cc1c[nH]c2ccccc12)NC(=O)OC(C)(C)C)C(=O)O, 4 steps) is reported as 19.4%.

For CC(C)C[C@@H]1NC(=O)[C@@H](c2cccs2)NC(=O)[C@H](CC(=O)O)NC(=O)[C@H](CC(=O)NCCc2c[nH]c3ccccc23)NC(=O)[C@@H](CC(=O)O)NC(=O)[C@@H](Cc2c[nH]c3ccccc23)NC1=O [cyclo[-D-Asp-Asn(CH2 CH2 -Ind)-Asp-D-Thg(2)-Leu-D-Trp-]], the ring closure, yield of all isomers ([1]; from CC(C)C[C@H](NC(=O)[C@H](NC(=O)OC(C)(C)C)c1cccs1)C(=O)N[C@H](Cc1c[nH]c2ccccc12)C(=O)N[C@H](CC(=O)OCc1ccccc1)C(=O)N[C@@H](CC(=O)NCCc1c[nH]c2ccccc12)C(=O)N[C@@H](CC(=O)OCc1ccccc1)C(=O)O, 4 steps) was 9.5%.

CC(C)C[C@@H]1NC(=O)[C@@H](CC(C)C)NC(=O)[C@H](CC(=O)O)NC(=O)[C@H](CC(=O)NCCc2ccccc2)NC(=O)[C@@H](CC(=O)O)NC(=O)[C@@H](Cc2c[nH]c3ccccc23)NC1=O [cyclo[-D-Asp-Asn(CH2 CH2 Ph)-Asp-D-Leu-Leu-D-Trp-]] gave a ring closure, yield of all isomers ([1]; from CC(C)C[C@H](NC(=O)[C@@H](CC(C)C)NC(=O)[C@H](CC(=O)OCc1ccccc1)NC(=O)[C@H](CC(=O)NCCc1ccccc1)NC(=O)[C@@H](CC(=O)OCc1ccccc1)NC(=O)[C@@H](Cc1c[nH]c2ccccc12)NC(=O)OC(C)(C)C)C(=O)O, HONB/DCC (ONB active ester), then TEA, DMF, 3.46 mM, 16.0 h, 4 steps) of 24.1%.

CC(C)C[C@@H]1NC(=O)[C@@H](CC(C)C)NC(=O)[C@H](CC(=O)O)NC(=O)[C@H](CC(=O)NCc2ccccc2)NC(=O)[C@@H](CC(=O)O)NC(=O)[C@@H](Cc2c[nH]c3ccccc23)NC1=O [cyclo[-D-Asp-Asn(CH2 Ph)-Asp-D-Leu-Leu-D-Trp-]] gave a ring closure, yield of all isomers ([1]; from CC(C)C[C@H](NC(=O)[C@@H](CC(C)C)NC(=O)[C@H](CC(=O)OCc1ccccc1)NC(=O)[C@H](CC(=O)NCc1ccccc1)NC(=O)[C@@H](CC(=O)OCc1ccccc1)NC(=O)[C@@H](Cc1c[nH]c2ccccc12)NC(=O)OC(C)(C)C)C(=O)O, HONB/DCC (ONB active ester), TEA, DMF, 3.46 mM, 16.0 h, 4 steps) of 23.8%.

With “Cyclo[--D--Asp--D,L-Tic--Asp--D--Leu--Leu--D--Trp--] [Example 86]” the “Binding Activity on ET Receptor (R. act.) ETA” value [2] was 38 and the “Binding Activity on ET Receptor (R. act.) ET8 *2” value [3] was 240.

— US5616684A, “Cyclic peptides and use thereof” (priority 1991, dated 1997)
